In assay [1] the test system is GN31 Acinetobacter baumannii. Description: Pre-chequerboard MIC, broth microdilution (Example 6). The format is cell-based. The following applies: antibiotic susceptible clinical isolate. From the text: (§1) A chequerboard technique was used to identify possible synergistic or antagonistic interactions between the 4-oxoquinolizines compounds, levofloxacin and polymyxin B. Levofloxacin was included as a control. […] Final dilutions were made in Mueller-Hinton broth, the specific test medium used for MIC determinations according to CLSI guidelines (CLSI. Methods for Dilution Antimicrobial Susceptibility Tests for Bacteria That Grow Aerobically; Approved Standard-Eighth Edition (2009). CLSI Document M07-A8. CLSI, Wayne, Pa. 19087-1898, USA.). The test medium used was a cation-adjusted Mueller-Hinton Broth II (Becton Dickinson UK Ltd., Oxford Science Park, Oxford, UK, OX4 4DQ).
(§2) The compounds 2, 33 and 35, as well as levofloxacin were tested in combination with polymyxin B on the following isolates: GN31 Acinetobacter baumannii—antibiotic susceptible clinical isolate, GN52 Acinetobacter baumannii—levofloxacin resistant clinical isolate, GN56 Acinetobacter baumannii—levofloxacin resistant clinical isolate, GN48 Klebsiella pneumoniae—NCTC 13443—NDM-1-metallo-R-lactamase and GN10 Pseudomonas aeruginosa—ATCC 27853—antibiotic susceptible reference isolate. All isolates are from the collection maintained at Quotient Bioresearch Ltd., Cambridge, UK.
(§3) The MIC values for the compounds and polymyxin B and levofloxacin were determined by broth microdilution following CLSI guidelines, and the MICs of agents in combination were determined as described by Pillai et.al (Pillai S K, Moellering R C Jr, Eliopoulis G M; Antimicrobial Combinations in Antibiotics in Laboratory Medicine 5th Edition (V. Lorian Ed) (2005) p 365-440). Initial MIC results were used to determine the microtiter plate patterns for the chequerboards. A suitable doubling dilution concentration range was selected such that the combination antibiotic range was at least two concentrations above and four concentrations below the MIC for each isolate. A fixed range of 0.008 to 8 mg/L was tested for polymyxin B except in the case of A. baumannii GN31 where a range of 0.004 to 4 mg/L was tested when in combination with the compounds 2, 33 and 35 as well as levofloxacin.
For orientation: In broth dilution the organism is exposed to a series of concentrations in liquid medium.

In assay [2] the test system is GN56 Acinetobacter baumannii. Described as above. The following applies: levofloxacin resistant clinical isolate. It counts as cell-based.
Source text: as §1, §2, §3

Assay [3] has as its system GN48 Klebsiella pneumoniae. The description is as above. The format is cell-based. The following applies: GN48 / NCTC 13443, NCTC 13443, NDM-1.
Source text: as §1, §2, §3

In assay [4] the test system is GN10 Pseudomonas aeruginosa. The description is as above. The following applies: ATCC 27853 / GN10, ATCC 27853, antibiotic susceptible. The format is cell-based.
Source text: as §1, §2, §3

The subject of assay [5] is GN52 Acinetobacter baumannii. Described as above. It counts as cell-based. The following applies: levofloxacin resistant clinical isolate.
Source text: as §1, §2, §3

The subject of assay [6] is GN48 Klebsiella pneumoniae. Description: Chequerboard synergy with polymyxin B (FICI). It counts as cell-based.
Source text: as §1, §2, §3
(§4) From the raw data, fractional inhibitory concentration indices (FICI) were determined for the compounds of the invention and levofloxacin together with polymyxin B for each isolate as follows: FICI=FICX+FICY Where,
(§5) FICX=concentration of the combination antibiotic in a particular row÷MIC of the combination drug alone
(§6) FICY=MIC of polymyxin B in combination÷MIC of the polymyxin B alone
(§7) Additionally isobolograms were created to represent the same data visually. Here, the MIC of polymyxin B was plotted against every concentration of the combination antibiotic up to the MIC.

The test system of the next assay is E. coli 25922. Description: MIC, standard panel of Gram-positive and Gram-negative bacteria (CLSI). The format is cell-based, Escherichia coli. The following applies: Escherichia coli, 25922, read-out: MIC E. coli 25922.
For the next assay, the system named is S. aureus 101. The assay is described as above. The following applies: Staphylococcus aureus, 101, read-out: MIC S. aureus 101. It counts as cell-based, Staphylococcus aureus.
The test system of the next assay is E. faecium 19434. The assay is described as above. The following applies: Enterococcus faecium, 19434, read-out: MIC E. faecium 19434. It counts as cell-based, Enterococcus faecium.
The test system of the next assay is E. faecalis 29212. The description is as above. The format is cell-based, Enterococcus faecalis. The following applies: Enterococcus faecalis, 29212, read-out: MIC E. faecalis 29212.
For a further assay, the system named is A. baumanii 19606. The assay is described as above. The format is cell-based. The following applies: Acinetobacter baumannii, 19606, read-out: MIC A. baumanii 19606.
A further assay concerns E. cloacae 13047. The assay is described as above. The format is cell-based, Enterobacter cloacae. The following applies: Enterobacter cloacae, 13047, read-out: MIC E. cloacae 13047.
Another assay concerns S. aureus 25923 HS. Described as above. The format is cell-based. The following applies: Staphylococcus aureus, read-out: MIC S. aureus 25923 HS.
The test system of another assay is P. aeruginosa 27853. Described as above. The following applies: Pseudomonas aeruginosa, 27853, read-out: MIC P. aeruginosa 27853. It counts as cell-based, Pseudomonas aeruginosa.
The next assay deals with S. epidermis 12228. The assay is described as above. The format is cell-based, Staphylococcus epidermis. The following applies: Staphylococcus, 12228, read-out: MIC S. epidermis 12228.
The test system of a further assay is S. aureus 25923. The description is as above. It counts as cell-based, Staphylococcus aureus. The following applies: Staphylococcus aureus, 25923, read-out: MIC S. aureus 25923.
For assay [7], the system named is GN31 Acinetobacter baumannii. Description: Chequerboard synergy with polymyxin B (FICI). The format is cell-based.
Source text: as §1, §2, §3, §4, §5, §6, §7

For assay [8], the system named is GN56 Acinetobacter baumannii. Briefly: Chequerboard synergy with polymyxin B (FICI). The format is cell-based.
Source text: as §1, §2, §3, §4, §5, §6, §7

Assay [9] relates to GN52 Acinetobacter baumannii. Briefly: Chequerboard synergy with polymyxin B (FICI). The format is cell-based.
Source text: as §1, §2, §3, §4, §5, §6, §7

≈ marks a conversion by molar mass, not a printed value. Where “and” joins values, the source holds several entries; their conditions need not be identical. Equal entries are not always repeated. Bounds are passed on as bounds.

Turning to `Cc1c(-c2ccc(N)nc2)ccn2c(=O)c(C(=O)O)cc(C3CC3)c12` [Compound 33, 8-(6-amino-3-pyridyl)-1-cyclopropyl-9-methyl-4-oxo-quinolizine-3-carboxylic acid], the MIC (commonly the lowest concentration found to suppress growth) in [1] is 0.03 µg/mL; in assay [2] it was 16 µg/mL; in assay [3], 16 µg/mL; in assay [4], 0.5 µg/mL; in assay [5], 2 µg/mL.

`Cc1c(-c2ccc3[nH]ncc3c2)ccn2c(=O)c(C(=O)O)cc(C3CC3)c12` [Compound 35, 8-(1H-indazol-5-yl)-1-cyclopropyl-9-methyl-4-oxo-quinolizine-3-carboxylic acid]: the “Combination drug MIC alone” value in [6] came out at 16 µg/mL. In addition, the Synergy result in assay [6] (combination with polymyxin B) is “partial synergy”. Moreover, the minimum inhibitory concentration (MIC) in assay [1] is 0.03 µg/mL; in [2] it was 8 µg/mL; in assay [3], 16 µg/mL; in [4], 0.25 µg/mL; in assay [5], 2 µg/mL.

Consider `CN[C@H](CC(C)C)C(=O)N[C@H]1C(=O)N[C@@H](CC(N)=O)C(=O)N[C@H]2C(=O)N[C@H]3C(=O)N[C@H](C(=O)N[C@H](C(=O)O)c4cc(O)cc(O)c4-c4cc3ccc4O)[C@H](O)c3ccc(c(Cl)c3)Oc3cc2cc(c3O[C@@H]2O[C@H](CO)[C@@H](O)[C@H](O)[C@H]2O[C@H]2C[C@](C)(N)[C@H](O)[C@H](C)O2)Oc2ccc(cc2Cl)[C@H]1O` [Vancomycin, reference compound], for which the MIC with E. coli 25922 was greater than 128 µg/mL; in the assay with S. aureus 101, 2 µg/mL (≈ 1.38 µM); with E. faecium 19434 it was 1 µg/mL (≈ 0.69 µM); in the assay with E. faecalis 29212, 2 µg/mL (≈ 1.38 µM); in the assay on A. baumanii 19606, greater than 128 µg/mL; in the assay with E. cloacae 13047, greater than 128 µg/mL. For the same compound, the MIC with S. aureus 25923 HS was 2 µg/mL (≈ 1.38 µM); with P. aeruginosa 27853, greater than 128 µg/mL; in the assay on S. epidermis 12228, 2 µg/mL (≈ 1.38 µM); in the assay on S. aureus 25923 it was 2 µg/mL (≈ 1.38 µM).

Polymyxin B: the “Polymyxin B MIC alone” value in assay [7] is 0.25 µg/mL and 0.5 µg/mL; in assay [8], 0.5 µg/mL; in [6], 0.5 µg/mL; in assay [9] it was 0.5 µg/mL.
